Measured values as given in patent publication EP3248604A1, “AGENTS FOR MODULATION OF WNT-TCF SIGNALLING AND USES THEREOF” (UNIVERSITE DE GENEVE, priority 2016, dated 2017).
Like-named read-outs stand apart in the source and are kept apart here.

What was measured:
WNT-TCF targets [1] = experiment: RT-qPCR gene expression in Ls174T cells; assay type: cell-based, human; conditions: for fold induction at 0.5 µM / fold induction at 5 µM: Homo sapiens
Description: (§1) RT-qPCR was performed as in Melotti et al. (2014, supra) using BioRad equipment and reagents. Cells cultured in nitro were treated with the desired concentration of drug in DMEM-F12 and reduced serum (2.5% FBS) for 16h, unless otherwise noted, and collected in Trizol (Sigma) before total RNA extraction and cDNA synthesis. Primers were as in Table 1. HPRT (gene encoding Hypoxanthine phosphoribosyltransferase 1) and βACTIN were used as housekeeping controls for normalization.
Compounds have been tested for the transcriptional modulation of a restricted TCF signature in human colon cancer Ls174T cells. These included the direct targets AXIN2 (gene encoding a protein axis inhibition protein 2), LGR5 (gene encoding encodes leucine-rich repeat-containing G-protein coupled receptor 5) and cMYC (a regulator gene encoding a transcription factor), which should be repressed by WNT-TCF response antagonists and p21 (or CDKN1A, gene encoding a cyclin-dependent kinase inhibitor that inhibits the complexes of CDK2 and CDK1), which should be induced.

CC14 cells = experiment: Epithelial island morphology of CC14 cells; assay type: cell-based, human; conditions: 24h; for epithelial island morphology: 1 µM
Description: Similar phenotypes were only observed at 10 µM of CAP1 or 5 µM of CAP3. CAP2 was thus chosen for further detailed analyses.

cell proliferation = experiment: BrdU incorporation assay; assay type: cell-based; conditions: 10 µM; 16h
Description: Cells incubated in vitro with different compounds were treated in DMEM-F12 with reduced serum (2.5% FBS) for 20 min with BrdU (5-bromo-2'-deoxyuridine; 10mg/ml, Sigma), washed and fixed with fresh paraformaldehyde (PFA; 4%, pH 8) followed by acid treatment and neutralization (Melotti et al., 2014, supra). Antibody analyses used anti-BrdU antibodies (supplied by University of Iowa Hybridoma Bank) and rhodamine-coupled anti-mouse secondary antibodies (Invitrogen Molecular Probes). Nuclei were counterstained with DAPI (4',6-diamidino-2-phenylindole; Sigma).

WNT-TCF targets [2] = experiment: RT-qPCR gene expression in CC14 primary colon cancer cells; assay type: cell-based, human; set-up: cMYC expression: scale not given here; conditions: 100 nM; Example 2 cells (CC14)
Description: as §1
Primary colon cells CC14 were cultured in DMEM-F12 with 10% FBS under standard in vitro conditions.
Primary colon cells CC14, CC36 and mCC11, colon cancer cell lines DLD1, HT29, Ls174T, melanoma cell line MeWo, glioblastoma cell lines U87 and U251, and the lung cancer cell line H358 were cultured in DMEM-F12 with 10% FBS under standard in nitro conditions.

[3] = LS174T, 16 h, read-out: AXIN2 expression
[4] = LS174T, 16 h, read-out: CDKN1A expression
[5] = LS174T, 16 h, read-out: cMYC expression
[6] = Ls174T, 0.5µM, 16h, over DMSO-treated controls, read-out: AXIN2 expression
[7] = Ls174T, 0.5µM, 16h, over DMSO-treated controls, read-out: CDKN1A expression
[8] = Ls174T, 0.5µM, 16h, over DMSO-treated controls, read-out: LGR5 expression
[9] = Ls174T, 0.5µM, 16h, over DMSO-treated controls, read-out: cMYC expression
[10] = Ls174T, 0.5µM, 16h, over DMSO-treated controls
[11] = Ls174T, 5µM, 16h, over DMSO-treated controls

Q: With “2,6-dimethyltetrahydropyran-3,4,5-triol; ethane; 3-(3,14,16-trihydroxy-10,13-dimethyl-1,2,3,4,5,6,7,8,9,11,12,15,16,17-tetradecahydro cyclopenta[a]phenanthren-17-yl)-2H-furan-5-one [CAP3]” as the compound, how does the AXIN2 expression (WNT-TCF targets [1]; Ls174T, 10 µM, 16h) read?
A: 0.7

Q: And the CDKN1A expression (WNT-TCF targets [1]; Ls174T, 10 µM, 16h)?
A: 6.3

Q: What about the LGR5 expression (WNT-TCF targets [1]; Ls174T, 10 µM, 16h) of the same compound?
A: 0.2

Q: And the cMYC expression (WNT-TCF targets [1]; Ls174T, 10 µM, 16h)?
A: 0.2

Q: And the epithelial island morphology (CC14 cells)?
A: maintained

Q: What about the “concentration at which disrupted morphology phenotype was observed” value (CC14 cells) of the same compound?
A: 5 µM

Q: What does the source list for CC1=C(C)C(=O)O[C@@H]([C@@](C)(O)[C@]2(O)CC[C@@]3(O)[C@@H]4CC=C5C[C@@H](O[C@@H]6O[C@H](CO)[C@@H](O)[C@H](O)[C@H]6O)CC(=O)[C@]5(C)[C@H]4CC[C@]23C)C1 [CAP1, (14R,17S,20R,22R)-3β,14,17,20-Tetrahydroxy-1-oxo-witha-5,24-dienolide 3-O-β-D-glucopyranoside]?
A: reduction of BrdU incorporation (cell proliferation): > 50%; AXIN2 expression (WNT-TCF targets [1]; Ls174T, 10 µM, 16h): 0.7; CDKN1A expression (WNT-TCF targets [1]; Ls174T, 10 µM, 16h): 2.5; LGR5 expression (WNT-TCF targets [1]; Ls174T, 10 µM, 16h): 0.2; cMYC expression (WNT-TCF targets [1]; Ls174T, 10 µM, 16h): 0.1; AXIN2 expression (WNT-TCF targets [2]): 1.1; LGR5 expression (WNT-TCF targets [2]): 0.8; cMYC expression (WNT-TCF targets [2]): 1.2; epithelial island morphology (CC14 cells): maintained; concentration at which disrupted morphology phenotype was observed (CC14 cells): 10 µM

Q: With C[C@@H]1O[C@@H](O[C@H]2CC[C@]3(C=O)[C@H]4CC[C@]5(C)[C@@H](C6=CC(=O)OC6)CC[C@]5(O)[C@@H]4CC[C@]3(O)C2)[C@H](O)[C@H](O)[C@H]1O [Convallatoxin, convallatoxin, reference compound] as the compound, how does the fold induction at 0.5 µM (WNT-TCF targets [1]; [3]) read?
A: 1.7

Q: And the fold induction at 0.5 µM (WNT-TCF targets [1]; [4])?
A: 0.3

Q: And the fold induction at 0.5 µM (WNT-TCF targets [1]; LS174T, 16 h, read-out: LGR5 expression)?
A: 1.6

Q: What about the fold induction at 0.5 µM (WNT-TCF targets [1]; [5]) of the same compound?
A: 0.2

Q: What does the source list for CO[C@H]1C[C@H](O[C@H]2CC[C@]3(C=O)[C@H]4CC[C@]5(C)[C@@H](C6=CC(=O)OC6)CC[C@]5(O)[C@@H]4CC[C@]3(O)C2)O[C@H](C)[C@H]1O [Cymarin, cymarin, reference compound]?
A: fold induction at 0.5 µM (WNT-TCF targets [1]; [6]): 1; fold induction at 0.5 µM (WNT-TCF targets [1]; [7]): 0.9; fold induction at 0.5 µM (WNT-TCF targets [1]; [8]): 0.9; fold induction at 0.5 µM (WNT-TCF targets [1]; [9]): 1

Q: With C[C@H]1O[C@@H](O[C@H]2[C@@H](O)C[C@H](O[C@H]3[C@@H](O)C[C@H](O[C@H]4CC[C@@]5(C)[C@H](CC[C@@H]6[C@@H]5CC[C@]5(C)[C@@H](C7=CC(=O)OC7)CC[C@]65O)C4)O[C@@H]3C)O[C@@H]2C)C[C@H](O)[C@@H]1O [Digitoxin, digitoxin, reference compound] as the compound, how does the fold induction at 0.5 µM (WNT-TCF targets [1]; [6]) read?
A: 0.6

Q: What about the fold induction at 0.5 µM (WNT-TCF targets [1]; [7]) of the same compound?
A: 1.7

Q: What about the fold induction at 0.5 µM (WNT-TCF targets [1]; [8]) of the same compound?
A: 2.1

Q: What about the fold induction at 0.5 µM (WNT-TCF targets [1]; [9]) of the same compound?
A: 0.2

Q: And the LGR5 repression (WNT-TCF targets [1]; Ls174T, lower doses 100 and 10 nM)?
A: lack of repressing on LGR5

Q: How did the fold induction at 0.5 µM (WNT-TCF targets [1]; [6]) turn out when C[C@H]1O[C@@H](O[C@H]2[C@@H](O)C[C@H](O[C@H]3[C@@H](O)C[C@H](O[C@H]4CC[C@@]5(C)[C@H](CC[C@@H]6[C@@H]5C[C@@H](O)[C@]5(C)[C@@H](C7=CC(=O)OC7)CC[C@]65O)C4)O[C@@H]3C)O[C@@H]2C)C[C@H](O)[C@@H]1O [Digoxin, digoxin, reference compound] was run?
A: 0.5

Q: What about the fold induction at 0.5 µM (WNT-TCF targets [1]; [7]) of the same compound?
A: 3

Q: What about the fold induction at 0.5 µM (WNT-TCF targets [1]; [8]) of the same compound?
A: 6.6

Q: And the fold induction at 0.5 µM (WNT-TCF targets [1]; [9])?
A: 1.1

Q: For C[C@]12CC[C@H](O)C[C@H]1CC[C@@H]1[C@@H]2CC[C@]2(C)[C@@H](C3=CC(=O)OC3)[C@@H](O)C[C@]12O [Gitoxigenin, gitoxigenin, reference compound], which fold induction at 0.5 µM (WNT-TCF targets [1]; [6]) is on record?
A: 1

Q: What about the fold induction at 0.5 µM (WNT-TCF targets [1]; [7]) of the same compound?
A: 0.3

Q: And the fold induction at 0.5 µM (WNT-TCF targets [1]; [8])?
A: 0.6

Q: And the fold induction at 0.5 µM (WNT-TCF targets [1]; [9])?
A: 0.4

Q: With C[C@H]1O[C@@H](O[C@H]2[C@@H](O)C[C@H](O[C@H]3[C@@H](O)C[C@H](O[C@H]4CC[C@@]5(C)[C@H](CC[C@@H]6[C@@H]5CC[C@]5(C)[C@@H](C7=CC(=O)OC7)[C@@H](O)C[C@]65O)C4)O[C@@H]3C)O[C@@H]2C)C[C@H](O)[C@@H]1O [Gitoxin, gitoxin, reference compound] as the compound, how does the fold induction at 0.5 µM (WNT-TCF targets [1]; [3]) read?
A: 0.4

Q: What about the fold induction at 0.5 µM (WNT-TCF targets [1]; [4]) of the same compound?
A: 1.3

Q: And the fold induction at 0.5 µM (WNT-TCF targets [1]; [5])?
A: 0.8

Q: What does the source list for CO[C@H]1[C@H](O)[C@H](O[C@H]2CC[C@@]3(C)[C@H](CC[C@@H]4[C@@H]3CC[C@]3(C)[C@@H](C5=CC(=O)OC5)CC[C@]43O)C2)O[C@@H](C)[C@@H]1O [Neriifolin, neriifolin, reference compound]?
A: fold induction at 0.5 µM (WNT-TCF targets [1]; [6]): 1.2; fold induction at 0.5 µM (WNT-TCF targets [1]; [8]): 1.8

Q: CO[C@H]1C[C@H](O[C@H]2CC[C@@]3(C)[C@H](CC[C@@H]4[C@@H]3CC[C@]3(C)[C@@H](C5=CC(=O)OC5)[C@@H](OC(C)=O)C[C@]43O)C2)O[C@@H](C)[C@@H]1O [Oleandrin, oleandrin, reference compound] was tested. Which fold induction at 0.5 µM (WNT-TCF targets [1]; [6]) did it give?
A: 1.6

Q: And the fold induction at 0.5 µM (WNT-TCF targets [1]; [7])?
A: 1.1

Q: And the fold induction at 0.5 µM (WNT-TCF targets [1]; [8])?
A: 0.5

Q: What about the fold induction at 0.5 µM (WNT-TCF targets [1]; [9]) of the same compound?
A: 0.1

Q: Which fold induction at 0.5 µM (WNT-TCF targets [1]; [6]) does the source give for C[C@@H]1O[C@@H](O[C@H]2C[C@@H](O)[C@]3(CO)[C@H]4[C@H](O)C[C@]5(C)[C@@H](C6=CC(=O)OC6)CC[C@]5(O)[C@@H]4CC[C@]3(O)C2)[C@H](O)[C@H](O)[C@H]1O [Ouabain, ouabain, reference compound] here?
A: 0.8

Q: What about the fold induction at 0.5 µM (WNT-TCF targets [1]; [7]) of the same compound?
A: 10

Q: And the fold induction at 0.5 µM (WNT-TCF targets [1]; [8])?
A: 3.3

Q: And the fold induction at 0.5 µM (WNT-TCF targets [1]; [9])?
A: 0.5

Q: What about the fold induction at 5 µM (WNT-TCF targets [1]; Ls174T, 5µM, 16h, over DMSO-treated controls, read-out: AXIN2 expression) of the same compound?
A: 1

Q: And the fold induction at 5 µM (WNT-TCF targets [1]; Ls174T, 5µM, 16h, over DMSO-treated controls, read-out: LGR5 expression)?
A: 1.4

Q: How did the AXIN2 expression (WNT-TCF targets [1]; [10]) turn out when CC1=C(C)C(=O)O[C@@H]([C@](C)(O)[C@H]2CC[C@H]3[C@@H]4[C@@H]5O[C@@H]5[C@@]5(O)CC=CC(=O)[C@]5(C)[C@H]4CC[C@]23C)C1 [Withanolide A, withanolide A, reference compound] was run?
A: 0.8

Q: And the CDKN1A expression (WNT-TCF targets [1]; [10])?
A: 0.7

Q: What about the LGR5 expression (WNT-TCF targets [1]; [10]) of the same compound?
A: 0.8

Q: What about the cMYC expression (WNT-TCF targets [1]; [10]) of the same compound?
A: 0.4

Q: And the AXIN2 expression (WNT-TCF targets [1]; [11])?
A: 1.8

Q: What about the LGR5 expression (WNT-TCF targets [1]; [11]) of the same compound?
A: 1.3

Q: CC1=C(C)C(=O)O[C@@H]([C@@H](C)[C@H]2CC[C@H]3[C@@H]4[C@@H]5O[C@@H]5[C@@]5(O)CC=CC(=O)[C@]5(C)[C@H]4CC[C@]23C)C1 [Withanolide B, withanolide B, reference compound] was tested. Which AXIN2 expression (WNT-TCF targets [1]; [10]) did it give?
A: 1.1

Q: What about the CDKN1A expression (WNT-TCF targets [1]; [10]) of the same compound?
A: 1.9

Q: What about the LGR5 expression (WNT-TCF targets [1]; [10]) of the same compound?
A: 1.3

Q: And the cMYC expression (WNT-TCF targets [1]; [10])?
A: 1.3

Q: And the AXIN2 expression (WNT-TCF targets [1]; [11])?
A: 1.3

Q: And the LGR5 expression (WNT-TCF targets [1]; [11])?
A: 1.4
